Results reported in patent US12194048B2, “Use of pyrrolopyridine derivatives for preventing or treating inflammatory diseases” (VORONOI CO., LTD., priority 2020, dated 2025).

Key:
[1] = tested on: house dust mite-induced atopic dermatitis model; experiment: House dust mite-induced atopic dermatitis model; assay type: in vivo, NC/Nga mice
Protocol: The backs and ears of NC/Nga mice aged 8 weeks were shaved, and 0.1 g house dust mite cream was applied once every three days for a total of seven times to induce atopic dermatitis. For the negative control group where dermatitis was not induced, a cream not including house dust mites was applied. […] To the comparative control group, the JAK1 inhibitor upadacitinib was orally administered at 6 mg/kg twice daily for 14 days.
After inducing atopic dermatitis using house dust mite cream, symptoms as well as the state of the skin of the cars and backs were scored twice weekly starting from the initial date of administration; the measurements were added and the means are shown in FIG. 9. Furthermore, on the date of termination of the experiment, skin tissue and serum were collected to observe the level of expression of inflammatory cytokines in the tissue and the level of expression of IgE in serum using ELISA analysis; the results are shown in FIG. 10.

[2] = Metabolic stability (MS) evaluation; assay type: in vitro ADME
[3] = biological target: hERG (Homo sapiens, UniProt Q12809); experiment: hERG analysis
[4] = tested on: IMQ-induced psoriasis-like skin inflammation model; experiment: Oral treatment in imiquimod (IMQ)-induced psoriasis-like skin inflammation; assay type: in vivo, BALB/c mice
Protocol: The positive control, methotrexate at 2 mg/kg and tofacitinib at 5 mg/kg were administered by oral gavage twice (BID) daily during the same study period.
Fifteen (15) mg Imiquimod (IMQ) cream (5%) (Aldara; 3M Pharmaceuticals) was topically (TOP) administered once daily (QD) on the right ear one hour after treatment from Day 1 to Day 9 for 9 consecutive days, translating to a daily dose of 0.75 mg of the active compound. Ear swelling was measured on Day 0 and thereafter 30 min before dosing on Days 2, 4, 6 and 8. On Day 10, ear swelling was measured 24 hours after the last dosing.

hERG, sequence (Q12809 whole entry): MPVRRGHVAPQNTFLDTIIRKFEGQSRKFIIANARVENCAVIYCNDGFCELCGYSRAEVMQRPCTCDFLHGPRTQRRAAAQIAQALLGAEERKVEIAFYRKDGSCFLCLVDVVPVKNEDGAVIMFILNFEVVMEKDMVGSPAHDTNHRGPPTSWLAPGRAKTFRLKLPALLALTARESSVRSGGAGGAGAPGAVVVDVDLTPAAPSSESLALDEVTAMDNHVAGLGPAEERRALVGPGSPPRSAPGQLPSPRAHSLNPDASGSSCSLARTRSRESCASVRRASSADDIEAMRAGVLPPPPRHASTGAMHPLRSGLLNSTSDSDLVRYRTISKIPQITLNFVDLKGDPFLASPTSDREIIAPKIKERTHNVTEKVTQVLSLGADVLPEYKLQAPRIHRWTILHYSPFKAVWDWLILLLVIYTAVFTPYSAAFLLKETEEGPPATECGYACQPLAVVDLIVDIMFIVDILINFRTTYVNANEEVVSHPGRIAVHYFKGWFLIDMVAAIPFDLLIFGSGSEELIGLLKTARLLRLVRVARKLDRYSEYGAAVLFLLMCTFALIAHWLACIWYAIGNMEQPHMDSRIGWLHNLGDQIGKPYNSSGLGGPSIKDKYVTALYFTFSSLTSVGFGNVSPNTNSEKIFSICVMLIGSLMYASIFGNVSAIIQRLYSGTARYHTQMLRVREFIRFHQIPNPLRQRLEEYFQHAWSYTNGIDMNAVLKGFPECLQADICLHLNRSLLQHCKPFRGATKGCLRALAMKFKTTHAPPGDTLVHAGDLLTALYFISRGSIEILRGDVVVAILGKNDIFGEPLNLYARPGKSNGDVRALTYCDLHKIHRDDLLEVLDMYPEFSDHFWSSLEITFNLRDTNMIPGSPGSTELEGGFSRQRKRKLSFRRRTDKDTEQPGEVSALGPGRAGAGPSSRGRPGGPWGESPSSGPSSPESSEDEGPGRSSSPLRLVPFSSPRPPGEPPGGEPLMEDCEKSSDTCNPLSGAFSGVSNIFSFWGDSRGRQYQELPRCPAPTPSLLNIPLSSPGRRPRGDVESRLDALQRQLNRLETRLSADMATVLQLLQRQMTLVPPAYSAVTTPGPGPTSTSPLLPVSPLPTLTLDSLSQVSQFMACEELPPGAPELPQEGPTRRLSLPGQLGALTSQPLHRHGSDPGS

CCNc1cc(Nc2ccc(C(=O)N3CCC(N4CCOCC4)CC3)cc2OC)nc2[nH]cc(C(F)(F)F)c12 [Compound 1, (4-((4-(ethylamino)-3-(trifluoromethyl)-1H-pyrrolo[2,3-b]pyridine-6-yl)amino)-3-methoxyphenyl)(4-morpholinopiperidine-1-yl)methanone]
dermatitis on the back and ears ([1]; 10, 20 and 30 mpk orally twice daily for 14 days, FIG. 9): alleviated in a concentration-dependent manner
IgE expression in serum ([1]; 10, 20 and 30 mpk, ELISA, FIG. 10): concentration-dependent reduction
alleviating dermatitis ([1]; 30 mpk orally twice daily for 14 days): most effective
IgE expression in serum ([1]; 30 mpk, ELISA, FIG. 10): statistically significant reduction
inflammatory cytokine expression in the back tissue ([1]; 30 mpk, against the control group, ELISA, FIG. 10): statistically significant reduction
alleviating atopic dermatitis, compared with upadacitinib control group ([1]; upadacitinib 6 mg/kg orally twice daily for 14 days): more effective
MS (1 μM) (% remaining during 30 min) Dog [2]: 96%
IC50 [3]: 4.39 µM
cardiac toxicity (hERG, in words) [3]: excellent safety in terms of cardiac toxicity
protective effects on IMQ-induced psoriasis-like inflammation (ear swelling) ([4]; 45 and 60 mg/kg PO BID×9 days): significantly (p<0.05) protective effects
IMQ-induced ear swelling ([4]; 45 and 60 mg/kg oral gavage BID 9 days, Day 8 to Day 10, vs vehicle group): statistically (p<0.05) significant inhibition
